According to patent US10059740B2, “Integrin interaction inhibitors for the treatment of cancer” (H. LEE MOFFITT CANCER CENTER AND RESEARCH INSTITUTE, INC., priority 2010, dated 2018):
Where two headings read alike, the source gives them in different places. Starred links: 1 amine or outer side, 2 acyl side, 3 side chain; linkers in the order of their positions; H or OH if unused. Positions of bridges follow the written chain, without caps; N, C: chain ends. Non-standard residues stand in square brackets, D forms with d. Residues, ends and D or L forms follow the SMILES beside them. *: point of attachment. dProlinol(O-CH2CO) = O=C(COC[C@H]1CCCN1[*:1])[*:2]; N(2-Aminoethyl)Gly = O=C(CN(CCN[*:3])[*:1])[*:2]; Nle = CCCC[C@H](N)C(=O)O; Ms = CS(=O)(=O)*

Tested on: H929 myeloma cells
Assay type: cell-based
Conditions: for change in activity relative to the inverso peptide L-cINTEGRIN INTERACTION INHIBITORS: alanine scan and analogs, Table 4 legend; for bioactivity of cyclic III peptide analogs, in words: SAR discussion of Table 8
Description: H929 cells were treated for 24 hours with varying concentrations of peptide. Cell death was measured by Topro-3 staining and FACS analysis. The IC50 values were obtained from linear regression analysis and an average value was obtained from 3 independent experiments.
Table 4 legend: Structure activity relationship in H929 myeloma cells of cyclic INTEGRIN INTERACTION INHIBITORS derivatives. The minimal bioactive core sequence of INTEGRIN INTERACTION INHIBITORS WSVVM (SEQ ID NO:85) was cyclized using 2 novel reduced amide bond beta turn promoters and KLKLK (SEQ ID NO:27) as the non-recognition sequence. H929 cells were treated with varying concentrations of the indicated peptide for 24 h. Cell viability was determined using Topro-3 staining and FACS analysis after drug treatment. IC50 values were generated from linear regressions generated from the dose response curves (n=mean of 3 independent experiments).
Using combinatorial peptide libraries and a functional binding assay, several peptides have been identified that inhibited α2β1 and α6β1 integrin mediated adhesion of prostate cancer cells to fibronectin, laminin and collagen IV.^1 They identified an all D-amino acid containing peptide referred as HYD1 ([…]) (SEQ ID NO:278) that blocks binding of epithelial prostate carcinoma cells to extracellular matrix components.^2,3 Hazlehurst and co-workers have truncated the N- and C-termini and alanine scan studies identified MVISW (SEQ ID NO:279) as the likely core region of linear D-HYD1 required for biological activity. […] The pentapeptide (KLKLK) (SEQ ID NO:27) was selected as the non-recognition strand to improve the solubility. N- to C-terminus cyclization of linear peptides was done to restrict the number of conformations available to the linear peptide which increases the affinity of the cyclized peptide for its target when the constraint stabilizes the bound conformation of the peptide. We synthesized cyclic D-HYD1 using a novel methylsulfonamide aminoethyl glycine linker T1 that connects two anti-parallel strands. […] The inverso- (peptide 2, Table 4) and partially modified retro-inverso (PMRI) (peptide 10) pentapeptide sequences of the recognition strand of cyclic III (Integrin Interaction Inhibitors also known as cyclic L-HYD1) peptide analogs were subsequently investigated for their potential to block beta integrin mediated cell adhesion. The retro-inverso design of biologically active peptides is a well-known strategy to design all D-amino acid peptides from potentially bioactive all L-peptide sequences with increased stability^4-7.
A colony forming assay was used to compare induced cell death in H929 multiple myeloma cells. Cells were treated with integrin interaction inhibitors, shown in FIG. 5 and Table 4, and cell death was measured following 24 hour peptide treatment by TOPRO-3 staining and FACS analysis.

| IC50 (24 h) [µM] | Compound | change in activity relative to the inverso peptide L-cINTEGRIN INTERACTION INHIBITORS (H929 cells) | also measured |
| --- | --- | --- | --- |
|  | CSCC[C@@H]1NC(=O)CN(S(C)(=O)=O)CCNC(=O)[C@H](CCCCN)NC(=O)[C@H](CC(C)C)NC(=O)[C@H](CCCCN)NC(=O)[C@H](CC(C)C)NC(=O)[C@H](CCCCN)NC(=O)CN(S(C)(=O)=O)CCNC(=O)[C@H](Cc2c[nH]c3ccccc23)NC(=O)[C@H](CO)NC(=O)[C@H](C(C)C)NC(=O)[C@H](C(C)C)NC1=O [III 1] |  | fold more potent than the parent linear HYD1 peptide (H929 cells): 2.5 fold |
|  | CSCC[C@@H]1NC(=O)CN(S(C)(=O)=O)CCNC(=O)[C@H](CCCCN)NC(=O)[C@H](CC(C)C)NC(=O)[C@H](CCCCN)NC(=O)[C@H](CC(C)C)NC(=O)[C@H](CCCCN)NC(=O)CN(S(C)(=O)=O)CCNC(=O)[C@H](C)NC(=O)[C@H](CO)NC(=O)[C@H](C(C)C)NC(=O)[C@H](C(C)C)NC1=O [III 2] | decrease in activity |  |
|  | CSCC[C@@H]1NC(=O)CN(S(C)(=O)=O)CCNC(=O)[C@H](CCCCN)NC(=O)[C@H](CC(C)C)NC(=O)[C@H](CCCCN)NC(=O)[C@H](CC(C)C)NC(=O)[C@H](CCCCN)NC(=O)CN(S(C)(=O)=O)CCNC(=O)[C@H](Cc2c[nH]c3ccccc23)NC(=O)[C@H](C)NC(=O)[C@H](C(C)C)NC(=O)[C@H](C(C)C)NC1=O [III 3] | increase in activity |  |
|  | CSCC[C@@H]1NC(=O)CN(S(C)(=O)=O)CCNC(=O)[C@H](CCCCN)NC(=O)[C@H](CC(C)C)NC(=O)[C@H](CCCCN)NC(=O)[C@H](CC(C)C)NC(=O)[C@H](CCCCN)NC(=O)CN(S(C)(=O)=O)CCNC(=O)[C@H](Cc2c[nH]c3ccccc23)NC(=O)[C@H](CO)NC(=O)[C@H](C)NC(=O)[C@H](C(C)C)NC1=O [III 4] | decrease in activity |  |
|  | CSCC[C@@H]1NC(=O)CN(S(C)(=O)=O)CCNC(=O)[C@H](CCCCN)NC(=O)[C@H](CC(C)C)NC(=O)[C@H](CCCCN)NC(=O)[C@H](CC(C)C)NC(=O)[C@H](CCCCN)NC(=O)CN(S(C)(=O)=O)CCNC(=O)[C@H](Cc2c[nH]c3ccccc23)NC(=O)[C@H](CO)NC(=O)[C@H](C(C)C)NC(=O)[C@H](C)NC1=O [III 5] | increase in activity |  |
|  | CC(C)C[C@@H]1NC(=O)[C@H](CCCCN)NC(=O)CN(S(C)(=O)=O)CCNC(=O)[C@H](Cc2c[nH]c3ccccc23)NC(=O)[C@H](CO)NC(=O)[C@H](C(C)C)NC(=O)[C@H](C(C)C)NC(=O)[C@H](C)NC(=O)CN(S(C)(=O)=O)CCNC(=O)[C@H](CCCCN)NC(=O)[C@H](CC(C)C)NC(=O)[C@H](CCCCN)NC1=O [III 6] | decrease in activity |  |
|  | CCCC[C@@H]1NC(=O)CN(S(C)(=O)=O)CCNC(=O)[C@H](CCCCN)NC(=O)[C@H](CC(C)C)NC(=O)[C@H](CCCCN)NC(=O)[C@H](CC(C)C)NC(=O)[C@H](CCCCN)NC(=O)CN(S(C)(=O)=O)CCNC(=O)[C@H](Cc2c[nH]c3ccccc23)NC(=O)[C@H](CO)NC(=O)[C@H](C(C)C)NC(=O)[C@H](C(C)C)NC1=O [III 7] | increase in activity |  |
| 6.7 | CSCC[C@@H]1NC(=O)[C@H](C(C)C)NC(=O)[C@H](C(C)C)NC(=O)[C@H](CO)NC(=O)[C@H](Cc2c[nH]c3ccccc23)NC(=O)CN(S(C)(=O)=O)CCNC(=O)[C@H](CCCCN)NC(=O)[C@H](CC(C)C)NC(=O)[C@H](CCCCN)NC(=O)[C@H](CC(C)C)NC(=O)[C@H](CCCCN)NC(=O)CN(S(C)(=O)=O)CCNC1=O [III 8] | increases in activity |  |
|  | CSCC[C@@H]1NC(=O)CN(S(C)(=O)=O)CCNC(=O)[C@H](CCCCN)NC(=O)[C@H](CC(C)C)NC(=O)[C@H](CCCCN)NC(=O)[C@H](CC(C)C)NC(=O)[C@H](CCCCN)NC(=O)CN(S(C)(=O)=O)CCNC(=O)[C@H](Cc2c[nH]c3ccccc23)NC(=O)[C@H](C)NC(=O)[C@H](C(C)C)NC(=O)[C@H](C(C)C)NC1=O [Peptide 4, KLKLKT1MVVAWT1] |  | bioactivity of cyclic III peptide analogs, in words: significantly improved the bioactivity |
|  | CCCC[C@@H]1NC(=O)CN(S(C)(=O)=O)CCNC(=O)[C@H](CCCCN)NC(=O)[C@H](CC(C)C)NC(=O)[C@H](CCCCN)NC(=O)[C@H](CC(C)C)NC(=O)[C@H](CCCCN)NC(=O)CN(S(C)(=O)=O)CCNC(=O)[C@H](Cc2c[nH]c3ccccc23)NC(=O)[C@H](CO)NC(=O)[C@H](C(C)C)NC(=O)[C@H](C(C)C)NC1=O [Peptide 8, KLKLKT1N*VVSWT1] |  | bioactivity of cyclic III peptide analogs, in words: further increase of the peptide's bioactivity |
| 12 | CCCC[C@@H]1NC(=O)[C@H](C(C)C)NC(=O)[C@H](C(C)C)NC(=O)[C@H](C)NC(=O)[C@H](Cc2c[nH]c3ccccc23)NC(=O)CN(S(C)(=O)=O)CCNC(=O)[C@H](CCCCN)NC(=O)[C@H](CC(C)C)NC(=O)[C@H](CCCCN)NC(=O)[C@H](CC(C)C)NC(=O)[C@H](CCCCN)NC(=O)CN(S(C)(=O)=O)CCNC1=O [Peptide 11, KLKLKT1WAVVN*T1] |  |  |
| 69 | CC(C)C[C@@H]1NC(=O)[C@H](CCCCN)NC(=O)CN(S(C)(=O)=O)CCNC(=O)[C@H](C)NC(=O)[C@H](C(C)C)NC(=O)[C@H](C(C)C)NC(=O)[C@H](C)NC(=O)[C@H](Cc2c[nH]c3ccccc23)NC(=O)CN(S(C)(=O)=O)CCNC(=O)[C@H](CCCCN)NC(=O)[C@H](CC(C)C)NC(=O)[C@H](CCCCN)NC1=O [Peptide 12, KLKLKT1WAVVAT1] |  |  |
|  | CCCC[C@@H]1NC(=O)[C@H](C)NC(=O)[C@H](C(C)C)NC(=O)[C@H](C)NC(=O)[C@H](Cc2c[nH]c3ccccc23)NC(=O)CN(S(C)(=O)=O)CCNC(=O)[C@H](CCCCN)NC(=O)[C@H](CC(C)C)NC(=O)[C@H](CCCCN)NC(=O)[C@H](CC(C)C)NC(=O)[C@H](CCCCN)NC(=O)CN(S(C)(=O)=O)CCNC1=O [Peptide 13, KLKLKT1WAVAN*T1] |  | IC50 (cyclic III peptide analogs, Table 8, H929 cells, TOPRO 3, read-out: IC50): 26 µM |
| 41 | CCCC[C@@H]1NC(=O)[C@H](C(C)C)NC(=O)[C@H](C)NC(=O)[C@H](C)NC(=O)[C@H](Cc2c[nH]c3ccccc23)NC(=O)CN(S(C)(=O)=O)CCNC(=O)[C@H](CCCCN)NC(=O)[C@H](CC(C)C)NC(=O)[C@H](CCCCN)NC(=O)[C@H](CC(C)C)NC(=O)[C@H](CCCCN)NC(=O)CN(S(C)(=O)=O)CCNC1=O [Peptide 14, KLKLKT1WAAVN*T1] |  |  |
| 3 | CCCC[C@@H]1NC(=O)[C@H](C(C)C)NC(=O)[C@H](C(C)C)NC(=O)[C@H](C)NC(=O)[C@H](C)NC(=O)CN(S(C)(=O)=O)CCNC(=O)[C@H](CCCCN)NC(=O)[C@H](CC(C)C)NC(=O)[C@H](CCCCN)NC(=O)[C@H](CC(C)C)NC(=O)[C@H](CCCCN)NC(=O)CN(S(C)(=O)=O)CCNC1=O [Peptide 15, KLKLKT1AAVVN*T1] |  | bioactivity of cyclic III peptide analogs, in words: unexpected improvement in bioactivity |
|  | CCCC[C@@H]1NC(=O)CN(S(C)(=O)=O)CCNC(=O)[C@H](CCCCN)NC(=O)[C@H](CC(C)C)NC(=O)[C@H](CCCCN)NC(=O)[C@H](CC(C)C)NC(=O)[C@H](CCCCN)NC(=O)COC[C@H]2CCCN2C(=O)[C@H](Cc2c[nH]c3ccccc23)NC(=O)[C@H](C)NC(=O)[C@H](C(C)C)NC(=O)[C@H](C(C)C)NC1=O [Peptide 16, KLKLKT1N*VVAWT3] (Ms-[N(2-Aminoethyl)Gly][Nle]VVAW[dProlinol(O-CH2CO)]KLKLK; lactam 1-C) |  | IC50 (H929 cells, 24 hours, Topro-3 and FACS, read-out: IC50 value in H929 cells): 1 µM |
| 13 | CCCC[C@@H]1NC(=O)CN(S(C)(=O)=O)CCNC(=O)[C@H](CCCCN)NC(=O)[C@H](CC(C)C)NC(=O)[C@H](CCC(N)=O)NC(=O)[C@H](CC(C)C)NC(=O)[C@H](CCCCN)NC(=O)COC[C@H]2CCCN2C(=O)[C@H](Cc2c[nH]c3ccccc23)NC(=O)[C@H](C)NC(=O)[C@H](C(C)C)NC(=O)[C@H](C(C)C)NC1=O [Peptide 17, KLKQKT1N*VVAWT3] (Ms-[N(2-Aminoethyl)Gly][Nle]VVAW[dProlinol(O-CH2CO)]KLQLK; lactam 1-C) |  |  |
| 19 | CCCC[C@@H]1NC(=O)CN(S(C)(=O)=O)CCNC(=O)[C@H](CCC(N)=O)NC(=O)[C@H](CC(C)C)NC(=O)[C@H](CCCCN)NC(=O)[C@H](CC(C)C)NC(=O)[C@H](CCCCN)NC(=O)COC[C@H]2CCCN2C(=O)[C@H](Cc2c[nH]c3ccccc23)NC(=O)[C@H](C)NC(=O)[C@H](C(C)C)NC(=O)[C@H](C(C)C)NC1=O [Peptide 19, KLKLQT1N*VVAWT3] (Ms-[N(2-Aminoethyl)Gly][Nle]VVAW[dProlinol(O-CH2CO)]KLKLQ; lactam 1-C) |  |  |
